Test results reported in US12109218B2, “Compositions of grapiprant and methods for using the same” (ARATANA THERAPEUTICS, INC., priority 2014, dated 2024).

How the values were obtained:
cat serum proteins = assay: Binding to cat serum proteins by equilibrium dialysis (Example 11); conditions: equilibrium dialysis (RED device)
Experimental: Grapiprant concentrations of 200 and 1000 ng/mL in cat serum were subjected to equilibrium dialysis using a Rapid Equilibrium Dialysis (RED) device.

[1] = Crossover PK of tablet vs methylcellulose suspension in beagle dogs (Example 15); type: in vivo, beagle dog; conditions: for Cmax / AUC(0-t) / Tmax: both sexes, dog, serum, po; for Cmax / AUC(0-t): beagle, both sexes combined; for AUC(0-t): read-out: average AUClast
Experimental: The objective of this study was to determine and compare the pharmacokinetic parameters of grapiprant in beagle dogs after single oral administration of a flavored tablet formulation and a methylcellulose suspension formulation at nominal doses of 6 mg/kg and 50 mg/kg. For this study, sixteen beagle dogs, […], were divided into two groups based on the nominal doses of grapiprant, either 6 mg/kg in Groups 3AB or 50 mg/kg in Groups 4A/B. Each group was given the appropriate oral dose in a tablet or in a methylcellulose formulation, using the crossover design as shown below at Table 19, on study Days 0 and 15. Blood samples were collected and serum was prepared, frozen, and analyzed for concentration of grapiprant.
The vehicle was 0.5% methylcellulose (400 centipoise) in water. About half a volume of distilled water was heated to about 40-50° C. Methylcellulose was weighed to give a final concentration of 0.5% (w/v), and dissolved in the heated distilled water with stirring. The flask with the methylcellulose solution was cooled immediately. The remaining distilled water was added into the flask to adjust volume. The final solution was stirred for least 30 minutes.
To prepare 1.2-mg/mL and 10-mg/mL suspensions grapiprant in the vehicle, an appropriate amount of grapiprant was added to a calibrated beaker containing 0.5% aqueous methylcellulose, and mixed using a vortex. The suspension was homogenized using a Polytron™ mixer with attached antifoam bit. A stir bar was added to the beaker, and the suspension was stirred for about 5 minutes. The stir bar was removed temporarily to adjust the volume, and the suspension was stirred for another 5 minutes before it was transferred to a labeled amber dosing container or glass beaker wrapped with foil.
The dosing suspension was prepared fresh on each day of dosing. A vortex depth of between 75% and 100% of the depth of the container containing the 500-mg suspension was achieved on both dosing days. […] Dose formulation samples were transported to the animal room before collection and were collected (while the formulations were being stirred) just before dosing the first animal of each group, and just before dosing the last animal of each group. These steps guard against the 500-mg suspension settling during transport from the formulation laboratory to the animal room.

[2] = 28-day safety and toxicokinetic study in cats (Example 14); type: in vivo, cat; conditions: for half-life: both sexes, domestic shorthair, cat, serum, oral, 15 mg/kg
Experimental: The objective of this study was to evaluate the feline safety and toxicokinetic profiles of grapiprant. Twenty-four domestic shorthair cats were randomly assigned to receive placebo or 3, 9, or 15 mg/kg grapiprant in a capsule formulation (3 males and 3 females per group) once daily for 28 days. All cats received their assigned medications as per protocol. Food consumption and behavior were observed daily, bodyweight measured weekly, and clinical pathology analyses on blood run on Days −7, 14, and 25, and urinalysis run on Days −7, and 25. Serial blood samples for toxicokinetic analyses were obtained following the Day 0 and Day 27 doses. Full necropsies and histopathological evaluations were performed following humane euthanasia on Day 28.

[3] = tested on: meniscal release model of osteoarthritis; assay: Meniscal release model of osteoarthritis in dogs (Example 8); type: in vivo
Experimental: Twenty intact adult female hounds underwent surgical meniscal release of the right stifle and were maintained for at least 8 weeks to allow osteoarthritis to develop. […] Animals were randomized into three groups: negative control (n=6), positive control (n=7) treated with 5 mg/kg firocoxib daily, and grapiprant (n=7) dosed once daily at 30 mg/kg. Dosing was based on baseline bodyweight.
Baseline physical exams, bodyweights, hematology, serum chemistry and urinalysis were obtained on study Day −1 and repeated on Day 13. Orthopedic assessments were conducted on Day −1, Day 2, Day 6, and Day 13, including a kinetics assessment using the GAITRite system to determine left hindlimb: right hindlimb ratios for peak pressure, stride length, step length, and stance time, a 5-point scale lameness evaluation, VAS assessments of right hindlimb function, right stifle pain and effusion, and comfortable range of motion measurements of both stifles using a goniometer.

[4] = Pharmacokinetics of capsule, suspension and tablets in dogs (Example 3); type: in vivo, dog; conditions: male dogs; for AUC(0-t) / AUC(0-inf) / Cmax / Tmax / half-life: dog, mean; for AUC(0-t): in vivo; for AUC(0-inf) / Cmax / Tmax / half-life: serum; for AUC0-∞/Dose / Cmax/Dose: dose-normalized mean
Experimental: The objective of this study was to compare the pharmacokinetic profile of several tablet formulations of grapiprant to capsule and aqueous methylcellulose suspension formulations of grapiprant with 20-mg doses. Appropriate amounts of the test article/excipient mixture were placed into gelatin capsules to provide each animal with 20 mg of grapiprant. As the grapiprant content in the excipient blend was 45% of the mixture weight, the total weight of the blend in each capsule was 0.0440 g. The weight tolerance was within ±0.005 g of the nominal capsule content weight.
For the aqueous suspensions (Group 2), the vehicle was 0.5% methyl cellulose (400 centipoise) in water. A 0.3-mg/mL suspension of grapiprant was prepared by adding grapiprant to a calibrated beaker and adding about 60-90% of the 0.5% aqueous methylcellulose to the beaker. A homogenizer was used to blend the material. A stir bar was added to the beaker, and the suspension was stirred for about 5 minutes. The stir bar was removed temporarily to adjust the volume with additional vehicle, and then the suspension was stirred for another 5 minutes before being transferred to a labeled dosing container. The formulation was continuously stirred at the time of dose administration.
Statistical analyses were conducted to determine differences in Cmax, Tmax, and AUCmax Values were normalized by mg/kg, and group means and standard deviations were calculated for numeric data. The actual administered doses ranged from 1.81 to 2.82 mg/kg, and averaged 2.2 mg/kg. No animal was found dead or deemed moribund during the study. All animals were normal at the scheduled observation time of 2 hours postdose.

[5] = 60 mg, beagle dogs, Day 0, 60-mg suspension
[6] = 60 mg, beagle dogs, Day 0, 60-mg tablet
[7] = 60 mg, beagle dogs, Day 15, 60-mg suspension
[8] = 60 mg, beagle dogs, Day 15, 60-mg tablet
[9] = 500 mg, beagle dogs, Day 0, 500-mg suspension
[10] = 500 mg, beagle dogs, Day 0, 500-mg tablet
[11] = 500 mg, beagle dogs, Day 15, 500-mg suspension
[12] = 500 mg, beagle dogs, Day 15, 500-mg tablet
[13] = Day 0, Group 1: single oral 20 mg API in capsule
[14] = Day 0, Group 2: single oral 2 mg/kg, 0.3 mg/mL methylcellulose suspension
[15] = Day 0, Group 1: 20 mg API in capsule
[16] = Day 0, Group 2: methylcellulose suspension

CCc1nc2c(C)nc(C)cc2n1-c1ccc(CCNC(=O)NS(=O)(=O)c2ccc(C)cc2)cc1 [grapiprant, N-{2-[4-(2-ethyl-4,6-dimethyl-1H-imidazo[4,5-c]pyridin-1-yl)phenyl]ethyl}-N′-[(4-methylphenyl)sulfonyl]urea]
percent bound (cat serum proteins; 200 ng/mL): 95% | percent bound (cat serum proteins; 1000 ng/mL): 92% | fecal abnormalities ([1]; beagle dogs, single oral 60 mg or 500 mg): Slight increases in the incidence of fecal abnormalities | relative bioavailability ratio (tablet/suspension) ([1]; both dose levels, both trials): greater than 100 | Cmax [1, 5]: 4050 ng/mL | AUC(0-t) [1, 5]: 14500 ng·h/mL | Cmax [1, 6]: 5330 ng/mL | AUC(0-t) [1, 6]: 19600 ng·h/mL | Cmax [1, 7]: 3810 ng/mL | AUC(0-t) [1, 7]: 12500 ng·h/mL | Cmax [1, 8]: 6110 ng/mL | AUC(0-t) [1, 8]: 17400 ng·h/mL | Cmax [1, 9]: 76800 ng/mL | AUC(0-t) [1, 9]: 293000 ng·h/mL | Cmax [1, 10]: 96100 ng/mL | AUC(0-t) [1, 10]: 455000 ng·h/mL | Cmax [1, 11]: 74200 ng/mL | AUC(0-t) [1, 11]: 209000 ng·h/mL | Cmax [1, 12]: 101000 ng/mL | AUC(0-t) [1, 12]: 430000 ng·h/mL | Tmax ([1]; beagle dogs, Day 0, 60-mg methylcellulose suspension): 1 h | Tmax ([1]; beagle dogs, Day 15, 500-mg suspension): 1 h | half-life ([2]; capsule 3, 9, or 15 mg/kg once daily, Day 27, read-out: Mean half-lives): 3 to 14 h | half-life ([2]; capsule 3, 9, or 15 mg/kg once daily, Day 27, read-out: half-life, median value): 5 to 6 h | tolerability and adverse effects ([2]; capsule 3, 9, or 15 mg/kg once daily for 28 days): well tolerated, and no adverse effects were noted at daily doses up to 15 mg/kg for 28 days | time after administration at which maximum serum concentrations were reached ([2]; capsule 3, 9, or 15 mg/kg once daily, Day 27): 1 to 4 h | safety ([3]; 30 mg/kg): considered safe for at least a 14-day treatment period | lameness scores ([3]; 30 mg/kg once daily): lower lameness scores in the grapiprant treated group on Day 2 compared to the negative and positive control groups | pain scores ([3]; 30 mg/kg once daily): statistically significant lower pain scores on Days 2 and 6 compared to baseline | serum total protein, albumin, and globulin ([3]; 30 mg/kg once daily): decreases in mean total protein, albumin, and globulin | amelioration of lameness and pain ([3]; 30 mg/kg over 14 days): effective at day 2 in ameliorating lameness and pain | AUC(0-t) [4, 13]: 1580 ng·h/mL | AUC(0-t) [4, 14]: 1650 ng·h/mL | AUC(0-inf) [4, 13]: 1640 ng·h/mL | Cmax [4, 13]: 804 ng/mL | Tmax [4, 13]: 1.08 h | half-life [4, 13]: 5.5 h | AUC(0-inf) [4, 14]: 1870 ng·h/mL | Cmax [4, 14]: 751 ng/mL | Tmax [4, 14]: 0.786 h | half-life [4, 14]: 4.1 h | AUC0-∞/Dose [4, 15]: 724 (hr*ng/mL)/(mg/kg) | Cmax/Dose [4, 15]: 359 (ng/mL)/(mg/kg) | AUC0-∞/Dose [4, 16]: 937 (hr*ng/mL)/(mg/kg) | Cmax/Dose [4, 16]: 376 (ng/mL)/(mg/kg)
